Measured values from US11136313B2, “Compounds, compositions, and methods for modulating CFTR” (Proteostasis Therapeutics, Inc., priority 2015, dated 2021).

Target: T1, ΔF508-CFTR (Homo sapiens, UniProt P13569, DEL508-508)
T1 construct: Primary lung epithelial cells homozygous for the Cystic Fibrosis-causing ΔF508 mutation were differentiated for a minimum of 4 weeks; endogenous in cells; host or cells: primary lung epithelial cells (hBE) homozygous for ΔF508, differentiated at an air-liquid interface
T1 sequence (P13569 with tags, fused parts or gaps DEL508-508): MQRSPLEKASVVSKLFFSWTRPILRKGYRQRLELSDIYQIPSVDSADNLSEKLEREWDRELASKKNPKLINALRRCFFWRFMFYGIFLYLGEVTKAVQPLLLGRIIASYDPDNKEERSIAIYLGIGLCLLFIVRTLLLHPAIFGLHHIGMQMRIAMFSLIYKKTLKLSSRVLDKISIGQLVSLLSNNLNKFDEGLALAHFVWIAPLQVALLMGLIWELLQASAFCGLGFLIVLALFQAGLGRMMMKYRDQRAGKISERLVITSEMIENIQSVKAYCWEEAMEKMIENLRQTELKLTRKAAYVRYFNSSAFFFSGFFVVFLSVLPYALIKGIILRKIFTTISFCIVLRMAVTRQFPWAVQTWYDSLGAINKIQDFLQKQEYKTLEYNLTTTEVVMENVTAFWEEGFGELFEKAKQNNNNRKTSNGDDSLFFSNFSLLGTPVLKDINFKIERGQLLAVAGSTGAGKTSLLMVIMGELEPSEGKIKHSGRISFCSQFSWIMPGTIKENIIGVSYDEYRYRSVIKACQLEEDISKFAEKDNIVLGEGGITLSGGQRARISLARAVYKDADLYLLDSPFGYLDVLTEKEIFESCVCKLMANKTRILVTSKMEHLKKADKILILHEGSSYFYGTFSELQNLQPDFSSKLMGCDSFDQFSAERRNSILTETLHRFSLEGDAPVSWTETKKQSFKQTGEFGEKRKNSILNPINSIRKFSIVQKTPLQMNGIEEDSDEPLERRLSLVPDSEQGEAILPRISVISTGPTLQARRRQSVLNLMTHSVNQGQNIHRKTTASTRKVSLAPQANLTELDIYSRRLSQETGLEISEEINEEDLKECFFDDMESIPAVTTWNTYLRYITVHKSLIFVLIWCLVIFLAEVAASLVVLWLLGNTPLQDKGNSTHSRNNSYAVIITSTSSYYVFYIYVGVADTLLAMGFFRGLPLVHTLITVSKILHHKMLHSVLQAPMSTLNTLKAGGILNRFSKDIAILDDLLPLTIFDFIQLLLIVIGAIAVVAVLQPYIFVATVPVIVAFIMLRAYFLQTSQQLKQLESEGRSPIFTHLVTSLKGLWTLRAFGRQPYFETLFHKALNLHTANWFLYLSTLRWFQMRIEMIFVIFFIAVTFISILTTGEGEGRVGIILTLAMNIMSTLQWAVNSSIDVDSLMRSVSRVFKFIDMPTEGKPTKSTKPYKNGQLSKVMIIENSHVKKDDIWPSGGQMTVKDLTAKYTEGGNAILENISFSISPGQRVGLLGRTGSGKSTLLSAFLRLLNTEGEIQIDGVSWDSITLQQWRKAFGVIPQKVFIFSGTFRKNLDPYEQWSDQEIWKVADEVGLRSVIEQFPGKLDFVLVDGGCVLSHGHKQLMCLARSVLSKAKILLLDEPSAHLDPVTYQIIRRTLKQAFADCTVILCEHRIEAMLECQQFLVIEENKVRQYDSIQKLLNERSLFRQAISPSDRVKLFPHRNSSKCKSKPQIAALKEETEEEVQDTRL
Assay: hBE equivalent current (Ieq) assay: AUC of equivalent chloride current after forskolin/VX-770 in primary lung epithelial cells homozygous for ΔF508
Type: cell-based
Conditions: relative to CFTR amplifier (Compound A)+VX-809 (3 uM), compound at 10 uM and Compound A at 3 uM, 24 h treatment
Method in brief: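 Readout is the increase over vehicle in equivalent chloride current AUC from forskolin/VX-770 addition to bumetanide, measured by current clamp at 36 °C after benzamil block of ENaC. Cultures were homozygous ΔF508 primary lung epithelium grown ≥4 weeks at air-liquid interface and exposed basolaterally to compound for 24 h.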

Structure (SMILES)	Activity
CCc1ccc(OCc2ccc(-c3cnccn3)cc2)c2c(C(=O)O)cc(-c3csc4ccccc34)nc12 [Compound 192, 2-(1-Benzothiophen-3-yl)-8-ethyl-5-[[4-(pyrazin-2-yl)phenyl]methoxy]quinoline-4-carboxylic acid]	++ (activity>50% of CFTR amplifier+VX-809 (3 uM) with compound at 10 uM and Compound A at 3 uM)
CCc1ccc(OCc2cccc(-c3cccnc3)c2)c2c(C(=O)O)cc(-c3csc4ccccc34)nc12 [Compound 194]	+ (activity<50% of an CFTR amplifier (Compound A)+VX-809 (3 uM) with compound at 10 uM and Compound A at 3 uM)
CCc1ccc(OCc2ccc(-c3cccnc3)cc2)c2c(C(=O)O)cc(-c3csc4ccccc34)nc12 [Compound 195]	++ (activity>50% of CFTR amplifier+VX-809 (3 uM) with compound at 10 uM and Compound A at 3 uM)
Cc1c(-c2cc(C(=O)O)c3c(O[C@H]4CC[C@@H](c5ncco5)CC4)ccc(C)c3n2)oc2ccccc12 [Compound 196]	++ (activity>50% of CFTR amplifier+VX-809 (3 uM) with compound at 10 uM and Compound A at 3 uM)
Cc1c(-c2cc(C(=O)O)c3c(O[C@H]4CC[C@H](c5ncco5)CC4)ccc(C)c3n2)oc2ccccc12 [Compound 197]	++ (activity>50% of CFTR amplifier+VX-809 (3 uM) with compound at 10 uM and Compound A at 3 uM)
Cc1ccc(O[C@H](C)c2ccccc2)c2c(C(=O)[O-])cc(-c3nc4ccccn4c3C)nc12.[Na+] [Compound 200]	+ (activity<50% of an CFTR amplifier (Compound A)+VX-809 (3 uM) with compound at 10 uM and Compound A at 3 uM)
Cc1ccc(O[C@@H](C)c2ccccc2)c2c(C(=O)[O-])cc(-c3nc4ccccn4c3C)nc12.[Na+] [Compound 201]	++ (activity>50% of CFTR amplifier+VX-809 (3 uM) with compound at 10 uM and Compound A at 3 uM)
Cc1ccc(O[C@H](C)c2ccccc2)c2c(C(=O)[O-])cc(-c3cn4ccccc4n3)nc12.[Na+] [Compound 202, Sodium 2-[Imidazo[1,2-a]pyridin-2-yl]-8-methyl-5-[(1R)-1-phenylethoxy]quinoline-4-carboxylate]	+ (activity<50% of an CFTR amplifier (Compound A)+VX-809 (3 uM) with compound at 10 uM and Compound A at 3 uM)
Cc1ccc(O[C@@H](C)c2ccccc2)c2c(C(=O)[O-])cc(-c3cn4ccccc4n3)nc12.[Na+] [Compound 203, Sodium 2-[Imidazo[1,2-a]pyridin-2-yl]-8-methyl-5-[(1S)-1-phenylethoxy]quinoline-4-carboxylate]	+ (activity<50% of an CFTR amplifier (Compound A)+VX-809 (3 uM) with compound at 10 uM and Compound A at 3 uM)
Cc1ccc(O[C@H](C)c2ccccc2)c2c(C(=O)[O-])cc(-c3cc4ccccn4n3)nc12.[Na+] [Compound 208]	++ (activity>50% of CFTR amplifier+VX-809 (3 uM) with compound at 10 uM and Compound A at 3 uM)
Cc1ccc(O[C@@H](C)c2ccccc2)c2c(C(=O)[O-])cc(-c3cc4ccccn4n3)nc12.[Na+] [Compound 209]	+ (activity<50% of an CFTR amplifier (Compound A)+VX-809 (3 uM) with compound at 10 uM and Compound A at 3 uM)
Cc1c(-c2cc(C(=O)[O-])c3c(O[C@H](C)c4ccccc4)ccc(C)c3n2)oc2ccccc12.[Na+] [Compound 212]	++ (activity>50% of CFTR amplifier+VX-809 (3 uM) with compound at 10 uM and Compound A at 3 uM)
Cc1c(-c2cc(C(=O)[O-])c3c(O[C@@H](C)c4ccccc4)ccc(C)c3n2)oc2ccccc12.[Na+] [Compound 213]	++ (activity>50% of CFTR amplifier+VX-809 (3 uM) with compound at 10 uM and Compound A at 3 uM)
CCc1ccc(O[C@@H]2CCC[C@H](C)C2)c2c(C(=O)[O-])cc(-c3sc4ccccc4c3C)nc12.[Na+] [Compound 214, Sodium 8-Ethyl-2-(3-methyl-1-benzothiophen-2-yl)-5-[[(1R,3S)-3-methylcyclohexyl]oxy]quinoline-4-carboxylate]	++ (activity>50% of CFTR amplifier+VX-809 (3 uM) with compound at 10 uM and Compound A at 3 uM)
CCc1ccc(O[C@H]2CCC[C@@H](C)C2)c2c(C(=O)[O-])cc(-c3sc4ccccc4c3C)nc12.[Na+] [Compound 215, Sodium 8-Ethyl-2-(3-methyl-1-benzothiophen-2-yl)-5-[[(1S,3R)-3-methylcyclohexyl]oxy]quinoline-4-carboxylate]	++ (activity>50% of CFTR amplifier+VX-809 (3 uM) with compound at 10 uM and Compound A at 3 uM)
CCc1ccc(O[C@H]2CCC[C@H](C)C2)c2c(C(=O)[O-])cc(-c3sc4ccccc4c3C)nc12.[Na+] [Compound 216, Sodium 8-Ethyl-2-(3-methyl-1-benzothiophen-2-yl)-5-[[(1S,3S)-3-methylcyclohexyl]oxy]quinoline-4-carboxylate]	++ (activity>50% of CFTR amplifier+VX-809 (3 uM) with compound at 10 uM and Compound A at 3 uM)
CCc1ccc(O[C@@H]2CCC[C@@H](C)C2)c2c(C(=O)[O-])cc(-c3sc4ccccc4c3C)nc12.[Na+] [Compound 217, Sodium 8-Ethyl-2-(3-methyl-1-benzothiophen-2-yl)-5-[[(1R,3R)-3-methylcyclohexyl]oxy]quinoline-4-carboxylate]	++ (activity>50% of CFTR amplifier+VX-809 (3 uM) with compound at 10 uM and Compound A at 3 uM)
Cc1c(-c2cc(C(=O)[O-])c3c(O[C@@H]4CCC[C@H](C)C4)ccc(C)c3n2)sc2ccccc12.[Na+] [Compound 218, Sodium 8-Methyl-2-(3-methyl-1-benzothiophen-2-yl)-5-[[(1R,3S)-3-methylcyclohexyl]oxy]quinoline-4-carboxylate]	++ (activity>50% of CFTR amplifier+VX-809 (3 uM) with compound at 10 uM and Compound A at 3 uM)
Cc1c(-c2cc(C(=O)[O-])c3c(O[C@H]4CCC[C@@H](C)C4)ccc(C)c3n2)sc2ccccc12.[Na+] [Compound 219, Sodium 8-Methyl-2-(3-methyl-1-benzothiophen-2-yl)-5-[[(1S,3R)-3-methylcyclohexyl]oxy]quinoline-4-carboxylic acid]	++ (activity>50% of CFTR amplifier+VX-809 (3 uM) with compound at 10 uM and Compound A at 3 uM)
Cc1c(-c2cc(C(=O)[O-])c3c(O[C@H]4CCC[C@H](C)C4)ccc(C)c3n2)sc2ccccc12.[Na+] [Compound 220, Sodium 8-Methyl-2-(3-methyl-1-benzothiophen-2-yl)-5-[[(1S,3S)-3-methylcyclohexyl]oxy]quinoline-4-carboxylate]	++ (activity>50% of CFTR amplifier+VX-809 (3 uM) with compound at 10 uM and Compound A at 3 uM)
Cc1ccc([C@H](C)Oc2ccc(C)c3nc(-c4sc5ccccc5c4C)cc(C(=O)[O-])c23)cc1.[Na+] [Compound 227, Sodium 8-Methyl-2-(3-methyl-1-benzothiophen-2-yl)-5-[(1S)-1-(4-methylphenyl)ethoxy]quinoline-4-carboxylate]	++ (activity>50% of CFTR amplifier+VX-809 (3 uM) with compound at 10 uM and Compound A at 3 uM)
Cc1c(-c2cc(C(=O)[O-])c3c(O[C@H](C)c4ccc(S(C)(=O)=O)cc4)ccc(C)c3n2)oc2ccccc12.[Na+] [Compound 229, Sodium 5-[(1R)-1-(4-methanesulfonylphenyl)ethoxy]-8-methyl-2-(3-methyl-1-benzofuran-2-yl)quinoline-4-carboxylate]	++ (activity>50% of CFTR amplifier+VX-809 (3 uM) with compound at 10 uM and Compound A at 3 uM)
Cc1c(-c2cc(C(=O)[O-])c3c(O[C@@H](C)c4ccc(S(C)(=O)=O)cc4)ccc(C)c3n2)oc2ccccc12.[Na+] [Compound 230, Sodium 5-[(1S)-1-(4-methanesulfonylphenyl)ethoxy]-8-methyl-2-(3-methyl-1-benzofuran-2-yl)quinoline-4-carboxylate]	++ (activity>50% of CFTR amplifier+VX-809 (3 uM) with compound at 10 uM and Compound A at 3 uM)
Cc1c(-c2cc(C(=O)[O-])c3c(O[C@H](C)c4ccc(C#N)cc4)ccc(C)c3n2)oc2ccccc12.[Na+] [Compound 233]	++ (activity>50% of CFTR amplifier+VX-809 (3 uM) with compound at 10 uM and Compound A at 3 uM)
Cc1c(-c2cc(C(=O)[O-])c3c(O[C@@H](C)c4ccc(C#N)cc4)ccc(C)c3n2)oc2ccccc12.[Na+] [Compound 234]	++ (activity>50% of CFTR amplifier+VX-809 (3 uM) with compound at 10 uM and Compound A at 3 uM)
Cc1c(-c2cc(C(=O)[O-])c3c(O[C@H](C)c4ccc(OC(F)F)cc4)ccc(C)c3n2)oc2ccccc12.[Na+] [Compound 235]	++ (activity>50% of CFTR amplifier+VX-809 (3 uM) with compound at 10 uM and Compound A at 3 uM)
Cc1c(-c2cc(C(=O)[O-])c3c(O[C@@H](C)c4ccc(OC(F)F)cc4)ccc(C)c3n2)oc2ccccc12.[Na+] [Compound 236]	++ (activity>50% of CFTR amplifier+VX-809 (3 uM) with compound at 10 uM and Compound A at 3 uM)
Cc1c(-c2cc(C(=O)[O-])c3c(O[C@H](C)c4ccc(S(N)(=O)=O)cc4)ccc(C)c3n2)oc2ccccc12.[Na+] [Compound 237, Sodium 8-Methyl-2-(3-methyl-1-benzofuran-2-yl)-5-[(1R)-1-(4-sulfamoylphenyl)ethoxy]quinoline-4-carboxylate]	+ (activity<50% of an CFTR amplifier (Compound A)+VX-809 (3 uM) with compound at 10 uM and Compound A at 3 uM)
Cc1c(-c2cc(C(=O)[O-])c3c(O[C@@H](C)c4ccc(S(N)(=O)=O)cc4)ccc(C)c3n2)oc2ccccc12.[Na+] [Compound 238, Sodium 8-Methyl-2-(3-methyl-1-benzofuran-2-yl)-5-[(1S)-1-(4-sulfamoylphenyl)ethoxy]quinoline-4-carboxylate]	++ (activity>50% of CFTR amplifier+VX-809 (3 uM) with compound at 10 uM and Compound A at 3 uM)
CNS(=O)(=O)c1ccc([C@@H](C)Oc2ccc(C)c3nc(-c4oc5ccccc5c4C)cc(C(=O)[O-])c23)cc1.[Na+] [Compound 239, Sodium 8-Methyl-2-(3-methyl-l-benzofuran-2-yl)-5-[(1R)-1-[4-(methylsulfamoyl)phenyl]ethoxy]quinoline-4-carboxylate]	++ (activity>50% of CFTR amplifier+VX-809 (3 uM) with compound at 10 uM and Compound A at 3 uM)
